Test results taken from US4201784A, “Substituted 2-[2'-(5"-nitrofuryl-2")vinyl-and 4'-(5"-nitrofuryl-2"-1,3-butadieryl]quinoline-4-carboxylic acid amides and salts thereof” (Institut Organicheskogo Sinteza Akademii Nauk Latviiskoi SSR, priority 1977, dated 1980).

Experiments:
[1] = tested on: lymphatic leukemia L 5178; assay: Antitumor activity, life prolongation, lymphatic leukemia L 5178; format: in vivo, mice
Protocol: (§1) Apart from the tests on Ehrlich ascitic tumor, giniquine was studied on twelve more inoculated tumors. Seven tumors (melanoma B16, sarcoma AK, large intestine carcinoma acatol-1, sarcoma 180, adenocarcinoma 755, Lewis lung carcinoma and sarcoma 37) were inoculated subcutaneously with 50 mg of tumoral cells per mouse. Four tumors (lymphatic leukemies L 5178, L 5178Y, L 1210 and P-388) were inoculated intraperitoneally with 10^6 cells per mouse. One tumor (La, hemocytoblastosis) was inoculated intraperitoneally by injecting 50 mg of cell suspension of spleen and liver of mice suffering La hemocytoblastosis, per mouse. Giniquine was injected intraperitoneally five times for seven days: 1,2,3,4,7 days or 3,4,5,6,7 days after the implantation of tumor. The rate of deceleration of the tumor growth was established 14 days after the ultimate injection of giniquine; life of test animals was recorded for 60 days.

[2] = tested on: sarcoma 37; assay: Antitumor activity, life prolongation, sarcoma 37; format: in vivo, mice
Protocol: as §1

[3] = tested on: sarcoma 180; assay: Antitumor activity, sarcoma 180; format: in vivo, mice
Protocol: as §1

[4] = tested on: acatol-1; assay: Antitumor activity, large intestine adenocarcinoma acatol-1; format: in vivo, mice
Protocol: as §1

[5] = tested on: Ehrlich ascitic tumor; assay: Antitumor activity, life prolongation of mice with Ehrlich ascitic tumor; format: in vivo
Protocol: The experiment was conducted as follows. 10^6 cells of Erlich tumuor were injected in common white mice intraperitoneally, the dose being given per each animal. […] Each dose of the preparation was tested in six mice. The control group included 18 mice. Giniquine solution was prepared by dissolving the substance ex tempore in distilled water or in a buffer. The effect of the preparation is shown on charts 1,2,3.

[6] = tested on: adenocarcinoma 755; assay: Antitumor activity, adenocarcinoma 755; format: in vivo, mice; details: daily doses of 10 and 17 mg/kg
Protocol: as §1

[7] = tested on: Jensen sarcoma; details: cited from earlier work
[8] = in vivo; cited from earlier work
[9] = tested on: Walker carcinosarcoma; details: cited from earlier work
[10] = tested on: Ehrlich ascitic tumor; assay: Influence of fluorafur on antitumor activity of giniquine, Ehrlich ascitic tumor; format: in vivo, mice
Protocol: In some experiments the influence of the known preparation fluorofur on the antitumoral activity of giniquine was studied. […] The tests were made on Ehrlich ascitic tumor. The preparations were injected 1,2,3,4 and 7 days after the implantation of tumor. Giniquine was injected intraperitoneally and fluorafur-subcutaneously.
giniquine was injected intraperitoneally, and fluorafursubcutaneously.

[11] = tested on: sarcoma AK; assay: Antitumor activity, sarcoma AK; format: in vivo, mice
Protocol: as §1

[12] = tested on: melanoma B16; assay: Antitumor activity, melanoma B16; format: in vivo, mice; details: 17 mg/kg
Protocol: as §1, with “Giniquine was injected intraperitoneally five times for seven days: 1,2,3,4,7 days or 3,4,5,6,7 days after the implantation of tumor.” left out

[13] = tested on: Lewis lung carcinoma; assay: Antitumor / antimetastatic activity, Lewis lung carcinoma; format: in vivo, mice; details: daily doses of 6 and 10 mg/kg
Protocol: as §1

[14] = in vivo; cited from earlier work; remark: listed apart in the source
[15] = tested on: Jensen sarcoma; assay: Growth deceleration / antitumor activity, Jensen sarcoma; format: in vivo; details: peroral administration
Excerpt: (§2) An antiblastic effect is caused by products of condensation of aldehydes of the nitrofuran series with (β-hydrazinoethyl)pyridine, 3-hydrazino-4-amino-1,2,4-triazole [Giller S. A., Kalnberga R. Yu., Zidermane A. A. et al. In the book "Methods of Synthesis and Search for Antitumor Preparations" (in Russian). Iss. 2. M. 1967. pp. 75-81; Giller S. A. et al. In the book "Furozolidine". (in Russian). Riga, 1962. pp. 5-18; Duavarte A. Zh., Zidermane A. A., Kravchenko I. M. et al. In the book "Proceedings of the 1st All-Union Conference on Chemotherapy of Malignant Tumors." Riga. 1968. pp. 216-217; Duavarte A. Zh. et al. In the book "Antitumor Compounds of the 5-nitrofuran Series." (in Russian). Riga, 1972. pp. 17-30)] and 5-aminobenzimidazol [Fuska J., Fuskova A., Jurasek A. "Neoplasma (Bratisl.)". 1973. v. 20. pp. 171-179].
(§3) "J. Pharm. Soc. Japan." 1964, 84(6). pp. 537-543; K. Miura, I. Okada. "Chem. Pharm. Bull." 1965. 13 (15). pp. 525-528].

[16] = tested on: Walker carcinosarcoma; assay: Growth deceleration / antitumor activity, Walker carcinosarcoma; format: in vivo; details: peroral administration
Excerpt: as §2, §3

[17] = tested on: Pliss lymphosarcoma; assay: Antitumor activity, Pliss lymphosarcoma; format: in vivo; details: peroral administration
Excerpt: as §3

[18] = tested on: La hemocytoblastosis; assay: Antitumor activity, La hemocytoblastosis; format: in vivo, mice; details: 10 mg/kg
Protocol: as §1

CCN(CC)CCCC(C)NC(=O)c1cc(C=CC=Cc2ccc([N+](=O)[O-])o2)nc2ccccc12 (stereo not drawn) [2-[4'-(5"-nitrofuryl-2")-1,3-butadienyl]quinoline-4-carboxylic acid (α-methyl-δ-diethylaminobutyl)amide diphosphate]
antiblastic activity / sensitivity (in words) ([1]; lymphatic leukemia L 5178): a certain sensitivity
prolongation of life ([2]; daily dose of 17 mg/kg, intraperitoneal): up to 120%
antitumor effect / sensitivity (in words) ([3]; sarcoma 180): a certain sensitivity
antitumor effect / sensitivity (in words) ([4]; acatol-1): a certain sensitivity
prolongation of life ([5]; doses of 3.6-10 mg/kg): 60 to 160%

CCN(CC)CCCC(C)NC(=O)c1cc(C=Cc2ccc([N+](=O)[O-])o2)nc2ccccc12 (stereo not drawn) [2-[2'-(5"-nitrofuryl-2")vinyl]quinoline-4-carboxylic acid (α-methyl-δ-diethylaminobutyl)amide diphosphate]
prolongation of life ([1]; lymphatic leukemia): up to 130%
prolongation of life ([3]; daily doses of 10 and 17 mg/kg): up to 20%
prolongation of life [6]: up to 20%
prolongation of life ([5]; 3-5 intraperitoneal injections, daily doses 10 to 28 mg/kg): 140 to 180%

O=Cc1ccc([N+](=O)[O-])o1 [5-nitrofurfural]
activity compared with 5-nitrofuran [7]: about the same activity
acute toxicity compared with 5-nitrofuran [8]: a higher acute toxicity
activity compared with 5-nitrofuran [9]: about the same activity

O=c1[nH]c(=O)n(C2CCCO2)cc1F (stereo not shown) [fluorafur, reference compound]
Life prolongation ([10]; Test No. 1, fluorafur 39.0 mg/kg daily): 35%
Life prolongation ([10]; Test No. 1, fluorafur 65.0 mg/kg daily): 37%
Life prolongation ([10]; Test No. 1, fluorafur 108.0 mg/kg daily): 40%
Life prolongation ([10]; Test No. 1, fluorafur 180.0 mg/kg daily): 52%
Life prolongation ([10]; Test No. 2, fluorafur 39.0 mg/kg daily): 18%
Life prolongation ([10]; Test No. 2, fluorafur 65.0 mg/kg daily): -5%
Life prolongation ([10]; Test No. 2, fluorafur 108.0 mg/kg daily): -17%
Life prolongation ([10]; Test No. 2, fluorafur 180.0 mg/kg daily): -33%

CCN(CC)CCCC(C)NC(=O)c1cc(C=Cc2ccc([N+](=O)[O-])o2)nc2ccccc12 (stereo not drawn) [2-[2'-(5"-nitrofuryl-2")vinyl]quinoline-4-carboxylic acid (α-methyl-δ-diethylaminobutyl)amide]
prolongation of life ([11]; sarcoma AK): up to 20%
prolongation of life ([1]; 6 to 28 mg/kg): 30 to 140%
prolongation of life [12]: up to 25%
prolongation of life ([3]; sarcoma 180): up to 20%
prolongation of life [13]: 30%
prolongation of life ([5]; three injections, 10 and 17 mg/kg): 70 to 130%

O=C(NCCCO)c1cc(C=Cc2ccc([N+](=O)[O-])o2)nc2ccccc12 [2-[2'-(5"-nitrofuryl-2")vinyl]quinoline-4-carboxylic acid (γ-hydroxypropyl)amide]
prolongation of life ([11]; 2.8 mg/kg): up to 20%
prolongation of life ([1]; lymphatic leukemia L 5178): up to 40%
prolongation of life ([2]; 12.5 mg/kg): 90%
prolongation of life ([5]; 7.5 mg/kg to 12.5 mg/kg, five injections): up to 120%

NC(=O)c1cc(C=Cc2ccc([N+](=O)[O-])o2)nc2ccccc12 [2-[2'-(5"-nitrofuryl-2")vinyl]quinoline-4-carboxylic acid amide]
antitumoral activity [14]: a very narrow range of antitumoral activity
antitumor activity [15]: not found any antitumor activity
antitumor activity [16]: not found any antitumor activity
antitumor activity [17]: not found any antitumor activity

O=P1(N(CCCl)CCCl)NCCCO1 (stereo not shown) [cyclophosphane, reference compound]
increase in mice life ([5]; Ehrlich ascitic tumor): 0%

CCN(CC)CCCC(C)NC(=O)c1cc(C=Cc2ccc([N+](=O)[O-])o2)nc2ccccc12 (stereo not drawn) [2-[2'-(5"-nitrofuryl-2")vinylquinoline]-4-carboxylic acid (α-methyl-δ-diethylaminobutyl)amide dibromide]
prolongation of life ([5]; single intraperitoneal injection, 28 mg/kg, 7 days after inoculation): 85%

O=C(NCCCO)c1cc(C=CC=Cc2ccc([N+](=O)[O-])o2)nc2ccccc12 [[4'-(5"-nitrofuryl-2")-1,3-butadienyl]quinoline-4-carboxylic acid (γ-hydroxypropyl)amide]
prolongation of life ([1]; 1 mg/kg): up to 40%
prolongation of life [18]: about 20%
prolongation of life ([4]; 10 mg/kg): about 20%
prolongation of life ([5]; 17 mg/kg): up to 80%

CCN(CC)CCCC(C)NC(=O)c1cc(C=Cc2ccc([N+](=O)[O-])o2)nc2ccccc12 (stereo not drawn) [2-[2'-(5"-nitrofuryl-2")vinyl]quinoline-4-carboxylic acid (α-methyl-δ-diethylaminobutyl)amide chloride]
prolongation of life ([5]; single intraperitoneal injection, 6 mg/kg, 7 days after inoculation): 85%

O=[N+]([O-])c1ccco1 [Example 5-nitrofuran, 5-nitrofuran]
deceleration of growth [7]: 39-51%
deceleration of growth [9]: 39-51%
